Results reported in patent US5145853A, “Bactericidal formulations for use in veterinary medicine” (Bayer Aktiengesellschaft, priority 1985, dated 1992).
In brackets after ≈: the same amount, converted by molar mass. Where two headings read alike, the source gives them in different places.

How the values were obtained:
[1] = system: mycoplasma strain no. 6442; assay: Mycoplasmas/Inhibitory concentration test, strain 6442; assay type: cell-based
Experimental: (§1) The test was carried out on microtiter plates. Series of concentrations of the active compound in 0.01 N soda solution were prepared. The concentrations were from 256 μg/ml to 0.0156 μg/ml.
(§2) 0.5 ml of an active compound solution are placed in each identation in the microtiter plate. To this 0.5 ml of an inoculum of mycoplasmas containing about 10^6 organisms per ml were added.
(§3) The inoculum consisted of a modified mycoplasma broth (PPLO) which contained about 20% of horse serum and in which mycoplasmas had been cultured to a titer of about 10^7 organisms per ml (determined by the MacCrady method).
(§4) Then the microtiter plate was incubated at 37° C. and the growth determined after 48, 72 and 96 hours. That concentration of active compound, which prevented any increase in the moculated mycoplasmas was taken as the MIC-value.

mycoplasma gallisepticum = assay: Treatment of mycoplasmoses in poultry; assay type: in vivo, chicken; settings: for clinical symptoms: animals killed 19 days after infection; for Average weight of the animals after 14: after 14 days; for Average weight of the animals after 19: after 19 days; for Average weight of the animals after 0: day 0 (before treatment)
Experimental: Groups of 40 chicken which were free from mycoplasma gallisepticum and mycoplasma synoviae were infected at the second day after hatching with a pathogenic wild strain of mycoplasma gallisepticum. The treatment began 24 hours after the infection. One group of 40 chickens was not treated and served as a control. The chickens were treated via their drinking water at 5 successive days following the infection. 19 days after the infection the animals were killed, weighed and examined.

[2] = system: mycoplasma strain no. 7981; assay: Mycoplasmas/Inhibitory concentration test, strain 7981; assay type: cell-based
Experimental: as §1, §2, §3, §4

[3] = system: mycoplasma strain no. 4587; assay: Mycoplasmas/Inhibitory concentration test, strain 4587; assay type: cell-based
Experimental: as §1, §2, §3, §4

[4] = system: mycoplasma strain no. 348; assay: Mycoplasmas/Inhibitory concentration test, strain 348; assay type: cell-based; settings: NO.348, read-out: MIC value, mycoplasma strain no. 348
Experimental: as §1, §2, §3, §4

[5] = system: mycoplasma strain no. 8008; assay: Mycoplasmas/Inhibitory concentration test, strain 8008; assay type: cell-based
Experimental: as §1, §2, §3, §4

[6] = system: mycoplasmas mycopneumoniae; assay: Treatment of mycoplasmoses in pigs; assay type: in vivo, piglets; settings: lungs examined on the 34th day
Text: Groups of 5 piglets with an average weight of 25 kg were fed with standard piglet feed from the beginning of the test, to which feed the stated quantities of active compound had been added.
On the 4th day after the beginning of the test, the animals were infected with mycoplasmas mycopneumoniae. As from the 10th day the animals were only given feed not containing any active compound. On the 34th day the animals were killed and the lungs were examined for lesions.

[7] = system: mycoplasma strain no. 81115; assay: Mycoplasmas/Inhibitory concentration test, strain 81115; assay type: cell-based
Experimental: as §1, §2, §3, §4

[8] = 250 ppm in drinking water, 5 successive days
[9] = NO.6442, series 256 μg/ml to 0.0156 μg/ml, growth after 48, 72 and 96 hours, 37° C., read-out: MIC value, mycoplasma strain no. 6442
[10] = NO.7981, series 256 μg/ml to 0.0156 μg/ml, growth after 48, 72 and 96 hours, 37° C., read-out: MIC value, mycoplasma strain no. 7981
[11] = NO.4587, series 256 μg/ml to 0.0156 μg/ml, growth after 48, 72 and 96 hours, 37° C., read-out: MIC value, mycoplasma strain no. 4587
[12] = NO.8008, series 256 μg/ml to 0.0156 μg/ml, growth after 48, 72 and 96 hours, 37° C., read-out: MIC value, mycoplasma strain no. 8008
[13] = NO.81115, series 256 μg/ml to 0.0156 μg/ml, growth after 48, 72 and 96 hours, 37° C., read-out: MIC value, mycoplasma strain no. 81115
[14] = 500 ppm in drinking water, 5 successive days

Compound: CCN1CCN(c2cc3c(cc2F)c(=O)c(C(=O)O)cn3C2CC2)CC1 [Compound I]
- MIC ([1]; NO.6442, read-out: MIC value, mycoplasma strain no. 6442): 0.15 µg/mL (≈ 0.417 µM)
- clinical symptoms (mycoplasma gallisepticum; [8]): none
- Average weight of the animals after 14 (mycoplasma gallisepticum; [8]): 355.7
- Average weight of the animals after 19 (mycoplasma gallisepticum; [8]): 463.8
- Average weight of the animals after 0 (mycoplasma gallisepticum; 250 ppm in drinking water): 47.3
- MIC ([2]; NO.7981, read-out: MIC value, mycoplasma strain no. 7981): 0.5 µg/mL (≈ 1.39 µM)
- MIC ([3]; NO.4587, read-out: MIC value, mycoplasma strain no. 4587): 0.5 µg/mL (≈ 1.39 µM)
- MIC [4]: 0.5 µg/mL (≈ 1.39 µM)
- MIC ([5]; NO.8008, read-out: MIC value, mycoplasma strain no. 8008): 0.25 µg/mL (≈ 0.696 µM)
- result (lung lesions) ([6]; 50 mg/kg in the feed): no lesions
- result (lung lesions) ([6]; 100 mg/kg in the feed): no lesions
- MIC ([7]; NO.81115, read-out: MIC value, mycoplasma strain no. 81115): 0.5 µg/mL (≈ 1.39 µM)

Compound: C=C[C@]1(C)C[C@@H](OC(=O)CSCCN(CC)CC)[C@]2(C)[C@H](C)CC[C@]3(CCC(=O)[C@H]32)[C@@H](C)[C@@H]1O [Tiamulin]
- result (lung lesions) ([6]; 200 mg/kg in the feed, control 10%): 5%

Compound: CC1CCc2cc(F)cc3c(=O)c(C(=O)O)cn1c23 (stereo not drawn) [flumequine]
- MIC [1, 9]: 256 µg/mL (≈ 980 µM)
- MIC [2, 10]: 256 µg/mL (≈ 980 µM)
- MIC [3, 11]: 256 µg/mL (≈ 980 µM)
- MIC [4]: 256 µg/mL (≈ 980 µM)
- MIC [5, 12]: 256 µg/mL (≈ 980 µM)
- MIC [7, 13]: 256 µg/mL (≈ 980 µM)

Compound: CCn1cc(C(=O)O)c(=O)c2ccc(C)nc21 [nalidixic acid]
- MIC [1, 9]: 128 µg/mL (≈ 551 µM)
- MIC [2, 10]: 128 µg/mL (≈ 551 µM)
- MIC [3, 11]: 128 µg/mL (≈ 551 µM)
- MIC [4]: 128 µg/mL (≈ 551 µM)
- MIC [5, 12]: 128 µg/mL (≈ 551 µM)
- MIC [7, 13]: 128 µg/mL (≈ 551 µM)

Compound: Tylocin
- clinical symptoms (mycoplasma gallisepticum; [14]): clearly noticeable
- animals dead (clinical symptoms) (mycoplasma gallisepticum; 500 ppm in drinking water, 5 successive days, groups of 40 chickens): no animals dead
- Average weight of the animals after 14 (mycoplasma gallisepticum; [14]): 311.9
- Average weight of the animals after 19 (mycoplasma gallisepticum; [14]): 426.3
- Average weight of the animals after 0 (mycoplasma gallisepticum; 500 ppm in drinking water): 48.4
